The text below walks through data of US10519177B2, “Heterocyclic compounds and uses thereof” (Plexxikon Inc., priority 2013, dated 2019).

One test concerns bromodomain. Description: at least one of the bromodomain cell assays of Example 57. It counts as cell-based. As to conditions: at least one of the bromodomain cell assays described in Example 57; read-out: IC50 in at least one of the bromodomain cell assays.
The subject of the next test is MV-4-11 cells. Description: Oncology cell growth assay MV-4-11 (CellTiter Glo). Type of test: cell-based. As to conditions: Homo sapiens, MV4-11, 72 h; MV-4-11, 3d growth; read-out: Cell activity (IC50 μM) MV-4-11 3d-Growth. In outline: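 Growth read by CellTiter Glo luminescence after 72 h compound treatment of MLL-AF4-bearing MV-4-11 cells (3000/well). Titration: 8 points, 1:3 steps, maximum 10 μM, 0.2% DMSO final. Data normalized to DMSO wells, four-parameter fit gives pIC50.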
For orientation: ATP-based viability assays read luminescence as a measure of living cells.

The target of another test is BRD4-BD12 (1-477) (Homo sapiens (Human), UniProt O60885). Kind of test: Alphascreen binding assay BRD4-BD12. Particulars: BRD4(1 2) H4; read-out: Biochemical activity (IC50 μM) BRD4(1 2) H4. In outline: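 In this competition format, compounds displace a biotinylated tetra-acetyl H4 peptide from E. coli-expressed human BRD4 bromodomain constructs captured on nickel chelate beads. The reaction runs at pH 7.5 with 2 mM DTT and detergent for 1 h at room temperature before a 30 min bead step.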
(Alpha assays give light when donor and acceptor beads are brought close together.)

pIC50: −log10 of the molar value.

As for `Cn1cc(-c2cnc3c(-c4cnn(CC(F)(F)F)c4)cn(CC4CCC(F)(F)CC4)c3c2)ccc1=O` [P-0436, 5-[1-[(4,4-difluorocyclohexyl)methyl]-3-[1-(2,2,2-trifluoroethyl)pyrazol-4-yl]pyrrolo[3,2-b]pyridin-6-yl]-1-methyl-pyridin-2-one], the pIC50 – broadly, −log10 of the IC50, conventionally taken in molar units – in the test on bromodomain was above 5.00. Besides, the IC50 in the test with MV-4-11 cells and at BRD4-BD12 (1-477) was below 1 µM throughout.
`Cn1cc(-c2cn(CC3CCC(F)(F)CC3)c3cc(-c4ccc(O)nc4)cnc23)cn1` [P-0437, 5-[1-[(4,4-difluorocyclohexyl)methyl]-3-(1-methylpyrazol-4-yl)pyrrolo[3,2-b]pyridin-6-yl]pyridin-2-ol]: the pIC50 in the test with bromodomain is above 5.00. Also, the IC50 with MV-4-11 cells and on BRD4-BD12 (1-477) was below 1 µM throughout.
Take `Cn1cc(-c2cn(CC3CCC(F)(F)CC3)c3cc(-c4ccc(=O)n(C)c4)cnc23)cn1` [P-0438, 5-[1-[(4,4-difluorocyclohexyl)methyl]-3-(1-methylpyrazol-4-yl)pyrrolo[3,2-b]pyridin-6-yl]-1-methyl-pyridin-2-one]: the pIC50 with bromodomain was above 5.00. In addition, the IC50 with MV-4-11 cells and on BRD4-BD12 (1-477) was below 1 µM in each case.
As to `Cc1n[nH]c(C)c1-c1cnc2c(-c3cnn(CC(F)(F)F)c3)cn(CC3CCC(F)(F)CC3)c2c1` [P-0440], in the test with bromodomain, the pIC50 is above 5.00. In addition, the IC50 in the test on MV-4-11 cells and on BRD4-BD12 (1-477) was below 1 µM each time.
`CCOC(=O)c1ccc(-n2cc(CC3CCC(F)(F)CC3)c3cc(-c4c(C)noc4C)cnc32)c(F)c1` [P-0441, ethyl 4-[3-[(4,4-difluorocyclohexyl)methyl]-5-(3,5-dimethylisoxazol-4-yl)pyrrolo[2,3-b]pyridin-1-yl]-3-fluoro-benzoate]: the pIC50 in the test on bromodomain was above 5.00. The IC50 (commonly the concentration needed to halve the response being measured) in the test on MV-4-11 cells is 1 to 10 µM; on BRD4-BD12 (1-477) it was below 1 µM.
The like results for `Cc1noc(C)c1-c1cnc2c(c1)c(CC1CCC(F)(F)CC1)cn2-c1ccc(C(=O)O)cc1F` [P-0442, 4-[3-[(4,4-difluorocyclohexyl)methyl]-5-(3,5-dimethylisoxazol-4-yl)pyrrolo[2,3-b]pyridin-1-yl]-3-fluoro-benzoic acid] were, in that order, above 5.00, below 1 µM and below 1 µM.
The like results for `Cc1noc(C)c1-c1cnc2c(c1)c(CC1CCC(F)(F)CC1)cn2-c1ncc(C(=O)O)cn1` [P-0443, 2-[3-[(4,4-difluorocyclohexyl)methyl]-5-(3,5-dimethylisoxazol-4-yl)pyrrolo[2,3-b]pyridin-1-yl]pyrimidine-5-carboxylic acid] were, in that order, above 5.00, 1 to 10 µM and below 1 µM.
Regarding `Cc1noc(C)c1-c1cnc2c(I)cn(CC3(F)CCC(F)(F)CC3)c2c1` [P-0448, 4-[3-iodo-1-[(1,4,4-trifluorocyclohexyl)methyl]pyrrolo[3,2-b]pyridin-6-yl]-3,5-dimethyl-isoxazole], the pIC50 in the test with bromodomain is above 5.00. Further, the IC50 in the test on MV-4-11 cells and at BRD4-BD12 (1-477) was below 1 µM throughout.
With `Nc1ncc(-c2cnc3c(-c4cnn(CC(F)(F)F)c4)cn(CC4CCC(F)(F)CC4)c3c2)cn1` [P-0451, 5-[1-[(4,4-difluorocyclohexyl)methyl]-3-[1-(2,2,2-trifluoroethyl)pyrazol-4-yl]pyrrolo[3,2-b]pyridin-6-yl]pyrimidin-2-amine], the pIC50 with bromodomain is above 5.00. Besides, the results for the IC50 in the test with MV-4-11 cells and at BRD4-BD12 (1-477) were 10 to 200 µM and 1 to 10 µM, respectively.
For `COc1ncc(-c2cnc3c(-c4cnn(CC(F)(F)F)c4)cn(CC4CCC(F)(F)CC4)c3c2)s1` [P-0452, 5-[1-[(4,4-difluorocyclohexyl)methyl]-3-[1-(2,2,2-trifluoroethyl)pyrazol-4-yl]pyrrolo[3,2-b]pyridin-6-yl]-2-methoxy-thiazole], in that order: above 5.00, 1 to 10 µM and below 1 µM.
For `COC(=O)c1ccc(-c2cn(CC3(F)CCCCC3)c3cc(-c4c(C)noc4C)cnc23)cn1` [P-0453, methyl 5-[6-(3,5-dimethylisoxazol-4-yl)-1-[(1-fluorocyclohexyl)methyl]pyrrolo[3,2-b]pyridin-3-yl]pyridine-2-carboxylate], in that order: above 5.00, below 1 µM and below 1 µM.
The like results for `COC(=O)c1ccc(-c2cn(CC3(F)CCC(F)(F)CC3)c3cc(-c4c(C)noc4C)cnc23)cn1` [P-0454, methyl 5-[6-(3,5-dimethylisoxazol-4-yl)-1-[(1,4,4-trifluorocyclohexyl)methyl]pyrrolo[3,2-b]pyridin-3-yl]pyridine-2-carboxylate] were, in that order, above 5.00, below 1 µM and below 1 µM.
Regarding `Cc1noc(C)c1-c1cnc2c(-c3ccc(C(=O)O)nc3)cn(CC3(F)CCCCC3)c2c1` [P-0455, 5-[6-(3,5-dimethylisoxazol-4-yl)-1-[(1-fluorocyclohexyl)methyl]pyrrolo[3,2-b]pyridin-3-yl]pyridine-2-carboxlic acid], the pIC50 in the test with bromodomain was above 5.00. Besides, the IC50 in the test on MV-4-11 cells and at BRD4-BD12 (1-477) was below 1 µM in each case.
`Cc1noc(C)c1-c1cnc2c(-c3ccc(C(=O)O)nc3)cn(CC3(F)CCC(F)(F)CC3)c2c1` [P-0456, 5-[6-(3,5-dimethylisoxazol-4-yl)-1-[(1,4,4-trifluorocyclohexyl)methyl]pyrrolo[3,2-b]pyridin-3-yl]pyridine-2-carboxylic acid]: in the test on bromodomain, the pIC50 was above 5.00. Besides, the IC50 with MV-4-11 cells and at BRD4-BD12 (1-477) was below 1 µM in each case.
Turning to `Cc1noc(C)c1-c1cnc2c(-c3ccc(C#N)cc3)cn(CC3(F)CCCCC3)c2c1` [P-0457, 4-[6-(3,5-dimethylisoxazol-4-yl)-1-[(1-fluorocyclohexyl)methyl]pyrrolo[3,2-b]pyridin-3-yl]benzonitrile], the pIC50 in the test on bromodomain is above 5.00. Also, the IC50 in the test on MV-4-11 cells and on BRD4-BD12 (1-477) was below 1 µM each time.
As for `Cc1noc(C)c1-c1cnc2c(-c3ccc(C#N)cc3)cn(CC3(F)CCC(F)(F)CC3)c2c1` [P-0458, 4-[6-(3,5-dimethylisoxazol-4-yl)-1-[(1,4,4-trifluorocyclohexyl)methyl]pyrrolo[3,2-b]pyridin-3-yl]benzonitrile], the pIC50 in the test on bromodomain was above 5.00. Moreover, the IC50 in the test on MV-4-11 cells and on BRD4-BD12 (1-477) was below 1 µM each time.
Turning to `[2H]C([2H])(C1CCC(F)(F)CC1)n1cc(C(=O)O)c2ncc(-c3c(C)noc3C)cc21` [P-0459, 1-[dideuterio-(4,4-difluorocyclohexyl)methyl]-6-(3,5-dimethylisoxazol-4-yl)pyrrolo[3,2-b]pyridine-3-carboxylic acid], in the test on bromodomain, the pIC50 was above 5.00. For the same compound, the IC50 with MV-4-11 cells is 1 to 10 µM; on BRD4-BD12 (1-477), below 1 µM.
For `Cc1noc(C)c1-c1cnc2c(-c3ccc(-c4nnn[nH]4)cc3)cn(CC3(F)CCCCC3)c2c1` [P-0460, 4-[1-[(1-fluorocyclohexyl)methyl]-3-[4-(1H-tetrazol-5-yl)phenyl]pyrrolo[3,2-b]pyridin-6-yl]-3,5-dimethyl-isoxazole], in that order: above 5.00, below 1 µM and below 1 µM.
For the compound `Cc1noc(C)c1-c1cnc2c(-c3ccc(-c4nnn[nH]4)cc3)cn(CC3(F)CCC(F)(F)CC3)c2c1` [P-0461, 3,5-dimethyl-4-[3-[4-(1H-tetrazol-5-yl)phenyl]-1-[(1,4,4-trifluorocyclohexyl)methyl]pyrrolo[3,2-b]pyridin-6-yl]isoxazole], in the test on bromodomain, the pIC50 is above 5.00. Besides, the IC50 in the test on MV-4-11 cells and at BRD4-BD12 (1-477) was below 1 µM throughout.
In the case of `Cc1noc(C)c1-c1cnc2c(C#CC(=O)O)cn(CC3CCC(F)(F)CC3)c2c1` [P-0462, 3-[1-[(4,4-difluorocyclohexyl)methyl]-6-(3,5-dimethylisoxazol-4-yl)pyrrolo[3,2-b]pyridin-3-yl]prop-2-ynoic acid], in the test on bromodomain, the pIC50 was above 5.00. Moreover, the IC50 with MV-4-11 cells is 1 to 10 µM; at BRD4-BD12 (1-477), below 1 µM.
`Cc1ccc(-c2cn(CC3(F)CCCCC3)c3cc(-c4c(C)noc4C)cnc23)cn1` [P-0463, 4-[1-[(1-fluorocyclohexyl)methyl]-3-(6-methyl-3-pyridyl)pyrrolo[3,2-b]pyridin-6-yl]-3,5-dimethyl-isoxazole]: the pIC50 with bromodomain is above 5.00. For the same compound, the IC50 in the test on MV-4-11 cells and on BRD4-BD12 (1-477) was below 1 µM in each case.
With `COc1ncc(-c2cn(CC3(F)CCCCC3)c3cc(-c4c(C)noc4C)cnc23)cn1` [P-0464, 4-[1-[(1-fluorocyclohexyl)methyl]-3-(2-methoxypyrimidin-5-yl)pyrrolo[3,2-b]pyridin-6-yl]-3,5-dimethyl-isoxazole], the negative-log IC50 (pIC50) in the test on bromodomain is above 5.00. Also, the IC50 in the test with MV-4-11 cells and on BRD4-BD12 (1-477) was below 1 µM each time.
On to `CNC(=O)c1ccc(-c2cn(CC3(F)CCCCC3)c3cc(-c4c(C)noc4C)cnc23)cc1` [P-0465, 4-[6-(3,5-dimethylisoxazol-4-yl)-1-[(1-fluorocyclohexyl)methyl]pyrrolo[3,2-b]pyridin-3-yl]-N-methyl-benzamide], for which the pIC50 in the test with bromodomain was above 5.00. The IC50 with MV-4-11 cells and at BRD4-BD12 (1-477) was below 1 µM in each case.
With `Cc1noc(C)c1-c1cnc2c(-c3ccc(C(N)=O)cc3)cn(CC3(F)CCCCC3)c2c1` [P-0466, 4-[6-(3,5-dimethylisoxazol-4-yl)-1-[(1-fluorocyclohexyl)methyl]pyrrolo[3,2-b]pyridin-3-yl]benzamide], the pIC50 in the test on bromodomain is above 5.00. For the same compound, the IC50 with MV-4-11 cells and at BRD4-BD12 (1-477) was below 1 µM throughout.
